Tested on: Podosphaera leucotricha
Assay: Podosphaera test (apple)/protective
Format: in vivo
Conditions: protective, 12.5 g/ha, evaluation 10 days after inoculation
Procedure: (§1) For the production of an appropriate active compound preparation 1 part by weight of active compound is mixed with the given amount of solvent and emulsifier and the concentrate is diluted to the desired concentration with water.
For the investigation for the protective activity young plants are sprayed with the active compound preparation in the amount specified. After drying of the spray coating the plants are inoculated with an aqueous spore suspension of the apple mildew pathogen Podosphaera leucotricha. The plants are then placed in a greenhouse at ca. 23° C. and a relative humidity of ca. 70%.
(§2) Evaluation is carried out 10 days after the inoculation. A level of activity of 0% corresponds to the level of activity of the control, whereas a level of activity of 100% means that no infestation is observed.

Point of comparison: `CC(C)C[C@H](C)c1ccccc1NC(=O)c1cn(C)cc1C(F)(F)F` [drawing 41], “Level of activity in %” value 98%. Against it:
- CC(C)C[C@@H](C)c1ccccc1NC(=O)c1cn(C)cc1C(F)(F)F [drawing 42] — lower, 28%

Same assay, conditions: protective, 50 g/ha, evaluation 10 days after inoculation

Point of comparison: `CC(C)C[C@@H](C)c1ccccc1NC(=O)c1ccccc1C(F)(F)F` [drawing 40], “Level of activity in %” value 20%. Against it:
- CC(C)C[C@H](C)c1ccccc1NC(=O)c1ccccc1C(F)(F)F [drawing 39] — higher, 100%

Tested on: Sphaerotheca fuliginea
Assay: Sphaerotheca test (cucumber)/protective
Format: in vivo
Conditions: protective, 3.125 g/ha, evaluation 7 days after inoculation
Procedure: as §1
For the investigation of the protective activity young cucumber plants are sprayed with the active compound preparation in the amount specified. After drying of the spray coating the plants are inoculated with an aqueous spore suspension of Sphaerotheca fuliginea. The plants are then placed in a greenhouse at ca. 23° C. and a relative humidity of ca. 70%.
Evaluation is carried out 7 days after the inoculation. A level of activity of 0% corresponds to the level of activity of the control, whereas a level of activity of 100% means that no infestation is observed.

Point of comparison: `CC(C)C[C@@H](C)c1sccc1NC(=O)c1cn(C)nc1C(F)(F)F` [drawing 54], “Level of activity in %” value 35%. Against it:
- CC(C)C[C@H](C)c1sccc1NC(=O)c1cn(C)nc1C(F)(F)F [drawing 53] — higher, 98%

Same assay, conditions: protective, 25 g/ha, evaluation 7 days after inoculation

Point of comparison: `Cc1nn(C)c(F)c1C(=O)Nc1ccccc1[C@H](C)CC(C)(C)C` [drawing 46], “Level of activity in %” value 0%. Against it:
- Cc1nn(C)c(F)c1C(=O)Nc1ccccc1[C@H](C)CC(C)C [drawing 44] — higher, 7%
- Cc1nn(C)c(F)c1C(=O)Nc1ccccc1[C@@H](C)CC(C)(C)C [drawing 45] — higher, 94%
- Cc1nn(C)c(F)c1C(=O)Nc1ccccc1[C@@H](C)CC(C)C [drawing 47] — higher, 96%
- CC(C)C[C@H](C)c1ccccc1NC(=O)c1ccccc1I [drawing 51] — higher, 85%
- CC(C)C[C@@H](C)c1ccccc1NC(=O)c1ccccc1I [drawing 52] — higher, 15%

Same assay, conditions: protective, 50 g/ha, evaluation 7 days after inoculation

Point of comparison: `CC(C)C[C@H](C)c1ccccc1NC(=O)c1cn(C)cc1C(F)(F)F` [drawing 55], “Level of activity in %” value 91%. Against it:
- CC(C)C[C@@H](C)c1ccccc1NC(=O)c1cn(C)cc1C(F)(F)F [drawing 56] — lower, 23%

Tested on: Venturia inaequalis
Assay: Venturia test (apple)/protective
Format: in vivo
Conditions: protective, 3.125 g/ha, evaluation 10 days after inoculation
Procedure: as §1
For the investigation of the protective activity young plants are sprayed with the active compound preparation in the amount specified. After drying of the spray coating the plants are inoculated with an aqueous conidial suspension of the apple scab pathogen Venturia inaequalis then left for 1 day in an incubator at ca. 20° C. and a relative humidity of 100%.
The plants are then placed in a greenhouse at ca. 21° C. and a relative humidity of ca. 90%.
as §2

Point of comparison: `CC(C)C[C@@H](C)c1sccc1NC(=O)c1cn(C)nc1C(F)(F)F` [drawing 66], “Level of activity in %” value 7%. Against it:
- CC(C)C[C@H](C)c1sccc1NC(=O)c1cn(C)nc1C(F)(F)F [drawing 65] — higher, 100%

Same assay, conditions: protective, 25 g/ha, evaluation 10 days after inoculation

Point of comparison: `Cc1nn(C)c(F)c1C(=O)Nc1ccccc1[C@@H](C)CC(C)C` [drawing 57], “Level of activity in %” value 100%. Against it:
- Cc1nn(C)c(F)c1C(=O)Nc1ccccc1[C@H](C)CC(C)C [drawing 58] — lower, 21%
- Cc1nn(C)c(F)c1C(=O)Nc1ccccc1[C@@H](C)CC(C)(C)C [drawing 59] — the same, 100%
- Cc1nn(C)c(F)c1C(=O)Nc1ccccc1[C@H](C)CC(C)(C)C [drawing 60] — lower, 0%
- CC(C)C[C@H](C)c1ccccc1NC(=O)c1ccccc1C(F)(F)F [drawing 61] — the same, 100%
- CC(C)C[C@@H](C)c1ccccc1NC(=O)c1ccccc1C(F)(F)F [drawing 62] — lower, 0%
- CC(C)C[C@H](C)c1ccccc1NC(=O)c1ccccc1I [drawing 63] — the same, 100%
- CC(C)C[C@@H](C)c1ccccc1NC(=O)c1ccccc1I [drawing 64] — lower, 16%

Same assay, conditions: protective, 50 g/ha, evaluation 10 days after inoculation

Point of comparison: `CC(C)C[C@H](C)c1ccccc1NC(=O)c1cn(C)cc1C(F)(F)F` [drawing 67], “Level of activity in %” value 100%. Against it:
- CC(C)C[C@@H](C)c1ccccc1NC(=O)c1cn(C)cc1C(F)(F)F [drawing 68] — lower, 20%

Tested on: Botrytis cinera
Assay: Botrytis test (bean)/protective
Format: in vivo
Conditions: protective, 62.5 g/ha, evaluation 2 days after inoculation
Procedure: as §1
For the investigation the protective activity young plants are sprayed with the active compound preparation in the amount specified. After drying of the spray coating 2 small pieces of agar coated with Botrytis cinera are placed on each leaf. The inoculated plants are then placed in a darkened room at ca 20° C. and a relative humidity of 100%.
The size of the infestation spots on the leaves are evaluated 2 days after the inoculation. A level of activity of 0% corresponds to the level of activity of the control, whereas a level of activity of 100% means that no infestation is observed.

Point of comparison: `CC(C)C[C@H](C)c1ccccc1NC(=O)c1cn(C)cc1C(F)(F)F` [drawing 77], “Level of activity in %” value 100%. Against it:
- CC(C)C[C@@H](C)c1ccccc1NC(=O)c1cn(C)cc1C(F)(F)F [drawing 78] — lower, 50%

Same assay, conditions: protective, 250 g/ha, evaluation 2 days after inoculation

Point of comparison: `CC(C)C[C@H](C)c1ccccc1NC(=O)c1ccccc1I` [drawing 75], “Level of activity in %” value 86%. Against it:
- Cc1nn(C)c(F)c1C(=O)Nc1ccccc1[C@@H](C)CC(C)C [drawing 69] — higher, 100%
- Cc1nn(C)c(F)c1C(=O)Nc1ccccc1[C@H](C)CC(C)C [drawing 70] — lower, 29%
- Cc1nn(C)c(F)c1C(=O)Nc1ccccc1[C@@H](C)CC(C)(C)C [drawing 71] — higher, 100%
- Cc1nn(C)c(F)c1C(=O)Nc1ccccc1[C@H](C)CC(C)(C)C [drawing 72] — lower, 14%
- CC(C)C[C@H](C)c1ccccc1NC(=O)c1ccccc1C(F)(F)F [drawing 73] — higher, 90%
- CC(C)C[C@@H](C)c1ccccc1NC(=O)c1ccccc1C(F)(F)F [drawing 74] — lower, 18%
- CC(C)C[C@@H](C)c1ccccc1NC(=O)c1ccccc1I [drawing 76] — lower, 0%

Tested on: Alternaria solani
Assay: Alternaria test (tomato)/protective
Format: in vivo
Conditions: protective, 50 g/ha, evaluation 3 days after inoculation
Procedure: as §1
For the investigation of the protective activity young plants are sprayed with the active compound preparation in the amount specified. After drying of the spray coating the plants are inoculated with an aqueous spore suspension of Alternaria solani. The plants are then placed in an incubator at ca. 20° C. and a relative humidity of 100%.
Evaluation is carried out 3 days after the inoculation. A level of activity of 0% corresponds the level of activity of the control, whereas a level of activity of 100% means that no infestation is observed.

Point of comparison: `CC(C)C[C@H](C)c1ccccc1NC(=O)c1cn(C)cc1C(F)(F)F` [drawing 79], “Level of activity in %” value 83%. Against it:
- CC(C)C[C@@H](C)c1ccccc1NC(=O)c1cn(C)cc1C(F)(F)F [drawing 80] — lower, 30%

— US20070276022A1, “Optically Active Carboxamides” (priority 2003, published 2007)
